Laboratory results as given in patent publication US7927849B2, “Laccase enzyme and use thereof” (AB Enzymes OY, priority 2004, dated 2011).
Where two headings read alike, the source gives them in different places.

Experiments:
[1] = molecular target: T1, Melanocarpus albomyces laccase MaL (Melanocarpus albomyces, UniProt Q70KY3); experiment: Kinetic parameters of Melanocarpus albomyces laccase MaL (comparison); type: biochemical
T1 sequence (Q70KY3 51-609): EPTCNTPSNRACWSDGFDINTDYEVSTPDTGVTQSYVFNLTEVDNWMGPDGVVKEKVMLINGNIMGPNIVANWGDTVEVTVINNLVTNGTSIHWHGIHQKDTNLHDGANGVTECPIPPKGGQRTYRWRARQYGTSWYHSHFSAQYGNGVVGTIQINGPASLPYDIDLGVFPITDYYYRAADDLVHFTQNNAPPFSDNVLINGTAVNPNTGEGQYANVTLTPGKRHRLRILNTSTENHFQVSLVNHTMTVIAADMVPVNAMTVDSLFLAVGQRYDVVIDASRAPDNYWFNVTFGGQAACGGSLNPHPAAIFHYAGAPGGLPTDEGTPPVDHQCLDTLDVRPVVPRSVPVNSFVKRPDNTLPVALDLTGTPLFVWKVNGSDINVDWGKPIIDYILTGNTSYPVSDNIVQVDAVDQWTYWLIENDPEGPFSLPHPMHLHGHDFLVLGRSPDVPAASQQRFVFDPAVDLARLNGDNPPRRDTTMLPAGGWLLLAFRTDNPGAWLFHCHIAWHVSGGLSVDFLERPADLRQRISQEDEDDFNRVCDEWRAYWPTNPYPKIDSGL
Procedure: (§1) On syringaldazin and DMP 40 mM MES buffer, pH 6 and 25 mM succinate buffer. All activity assays were carried out at 25° C. Kinetic parameters were estimated by a nonlinear regression curve fit. The values were compared to those of Melanocarpus albomyces MaL, laccase.

[2] = molecular target: T2, Thielavia arenaria ALKO4197 laccase TaLcc1, recombinant (rTaLcc1, expressed in Trichoderma reesei), SEQ ID NO: 12 (Canariomyces arenarius, UniProt F6N9E7); type: biochemical
T2 construct: predicted mature residues 22-604; no tag stated
T2 sequence (F6N9E7 with tags, fused parts or gaps): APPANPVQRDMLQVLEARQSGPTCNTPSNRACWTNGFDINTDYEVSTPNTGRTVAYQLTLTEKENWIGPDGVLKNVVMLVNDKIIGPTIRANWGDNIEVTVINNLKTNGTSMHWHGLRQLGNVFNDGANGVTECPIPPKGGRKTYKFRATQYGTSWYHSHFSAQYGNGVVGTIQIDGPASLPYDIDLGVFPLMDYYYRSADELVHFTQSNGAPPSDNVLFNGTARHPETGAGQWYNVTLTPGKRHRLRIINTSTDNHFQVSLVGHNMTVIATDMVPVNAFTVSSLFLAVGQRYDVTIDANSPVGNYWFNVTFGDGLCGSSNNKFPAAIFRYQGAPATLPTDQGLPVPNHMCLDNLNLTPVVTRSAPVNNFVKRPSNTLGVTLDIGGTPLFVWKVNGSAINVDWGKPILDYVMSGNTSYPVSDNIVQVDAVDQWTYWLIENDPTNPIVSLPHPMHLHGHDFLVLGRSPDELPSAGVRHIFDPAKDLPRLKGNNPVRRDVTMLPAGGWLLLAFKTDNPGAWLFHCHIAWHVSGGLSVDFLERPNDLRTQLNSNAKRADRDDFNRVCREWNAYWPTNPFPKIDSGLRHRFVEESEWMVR
Procedure: as §1

[3] = Denim bleaching: laccase-mediator (100 nkat/g, 5 mg/g, 30 min, 60° C.) compared to sodium hypochlorite (15 min, 40° C.)
Procedure: Different types of demin were treated with a TaLcc1 laccase product from Trichoderma strain RF5597 and DeniLite II Base from Novozymes and the results obtained were compared to hypochlorite bleaching. All together 27 pieces of different kinds of denim (whole jeans), which had been previously washed with cellulase after desizing to different abrasion levels or had been only desized with ECOSTONE®A200 (60° C., 10 min), were collected for the test (Table 15). The jeans were made of Indigo dyed denim, except the English jeans contained Indigo dyed denim with sulphur bottom. Jeans were cut in such a way that pieces from the same pair of jeans could be used for all tests.
The jeans were made of Indigo dyed denim (right hand twill), except the English jeans contained Indigo dyed denim with sulphur bottom. The weights of the original (i.e. not desized) denim fabrics were typically higher than 475 g/m^2 (14 oz/yd^2). The weights of three 10 cm×10 cm pieces were measured after 24 hours incubation at room temperature (ca. 22° C. and at relative moisture ca. 64%).
The laccase treatments were performed with Electrolux's Wascator FOM 71 CLS washer extractor under optimal conditions for each enzyme, described in Table 16. Methyl syringate (Example 7) was used as a mediator. Laccase was inactivated after draining by raising the pH above 11 by NaOH (10 min, 60° C.) and rinsing for three times. The fabrics were dried in a tumbler.
The sodium hypochlorite bleaching was performed with Electrolux's Wascator FOM 71 CLS washer extractor using denim obtained from the same jeans as in laccase treatments under conditions described in Table 17. Sodium hydroxide was added before adding 25 ml/l of 10% sodium hypochlorite solution (Klorite Forte, Farmos Oy) to keep the pH above 10.5 during the treatment. After draining the bleach liquor, there was one 2 minutes rinsing step with the liquor ratio of 1:20 before dechlorinating with sodium thiosulphate. After dechlorinating the denim samples were rinsed 3 times for 2 minutes with the liquor ratio of 1:20. The fabrics were dried in a tumbler.
The bleaching effect was evaluated by measuring the colour as reflectance values as in Example 7. […] Different looks were obtained depending on the type of the denim and cellulase treatment used. “Sulphur-bottom type” denim was the most difficult to bleach.

[4] = substrate: COc1cc(/C=N/N=C/c2cc(OC)c(O)c(OC)c2)cc(OC)c1O; experiment: purified protein, by the assay type; type: biochemical, Thielavia arenaria; settings: other: syringaldazin and DMP, 40 mM MES buffer, pH 6 and 25 mM succinate buffer, 25° C.
Procedure: as §1

[5] = syringaldazin and DMP, 40 mM MES buffer, pH 6 and 25 mM succinate buffer, 25° C.
[6] = ABTS, 25 mM succinate buffer, pH 4.5, 25° C.
[7] = sample B1: Basic Jeans, Ecostone P1250
[8] = sample E1: English jeans (sulphur bottom), desized only
[9] = sample E2: English jeans, Ecostone NP2000
[10] = sample E3: English jeans, Rocksoft NCE-EA
[11] = sample E4: English jeans, Rocksoft NCE-2X
[12] = sample E5: English jeans, Ecostone L900
[13] = sample E6: English jeans, Ecostone L900
[14] = sample E7: English jeans, Ecostone L900
[15] = sample L1: Lee Cooper jeans, desized only
[16] = sample L2: Lee Cooper jeans, Ecostone L
[17] = sample L3: Lee Cooper jeans, Biotouch C29
[18] = sample L4: Lee Cooper jeans, Ecostone L
[19] = sample L5: Lee Cooper jeans, Indiage Max L
[20] = sample L6: Lee Cooper jeans, Indiage Super L
[21] = sample L7: Lee Cooper jeans, Ecostone CXP500 Exper.
[22] = sample L8: Lee Cooper jeans, Ecostone CXP experimental
[23] = sample L9: Lee Cooper jeans, Ecostone N400
[24] = sample T1: Tincan jeans, desized only
[25] = sample T2: Tincan jeans, Ecostone N400
[26] = sample T3: Tincan jeans, Ecostone L300
[27] = sample T4: Tincan jeans, Denimax 991S
[28] = sample W1: Warric jeans, desized only
[29] = sample W2: Warric jeans, Ecostone P4500
[30] = sample W3: Warric jeans, Indiage Max G
[31] = sample W4: Warric jeans, Ecostone NP2000
[32] = sample W5: Warric jeans, Ecostone L900
[33] = sample W6: Warric jeans, Denabraide MBL 65 E

COc1cc(/C=N/N=C/c2cc(OC)c(O)c(OC)c2)cc(OC)c1O [Syringaldazin, syringaldazine]
kcat [1, 5]: 78.5 s⁻¹

CCn1c(=NN=c2sc3cc(S(=O)(=O)O)ccc3n2CC)sc2cc(S(=O)(=O)O)ccc21 [ABTS, 2,2′azinobis-3-ethylbenzthiazole-6-sulphonate]
Km [2, 6]: 75 µM
kcat [2, 6]: 68.83 s⁻¹
kcat ([1]; pH 4.5): 78.17 s⁻¹

OCl [sodium hypochlorite, reference compound]
L* after treatment [3, 7]: 40.62
b* after treatment [3, 7]: −17.37
L* after treatment [3, 8]: 21.91
b* after treatment [3, 8]: −15.03
L* after treatment [3, 9]: 33.30
b* after treatment [3, 9]: −16.43
Increase of L* [3, 10]: 9.40
L* after treatment [3, 10]: 34.13
b* after treatment [3, 10]: −16.73
L* after treatment [3, 11]: 35.83
b* after treatment [3, 11]: −16.86
L* after treatment [3, 12]: 33.85
b* after treatment [3, 12]: −16.48
L* after treatment [3, 13]: 30.61
b* after treatment [3, 13]: −16.65
L* after treatment [3, 14]: 32.36
b* after treatment [3, 14]: −16.75
L* after treatment [3, 15]: 31.23
b* after treatment [3, 15]: −20.83
L* after treatment [3, 16]: 44.11
b* after treatment [3, 16]: −18.60
L* after treatment [3, 17]: 39.71
b* after treatment [3, 17]: −19.67
L* after treatment [3, 18]: 40.63
b* after treatment [3, 18]: −19.25
L* after treatment [3, 19]: 39.47
b* after treatment [3, 19]: −19.48
L* after treatment [3, 20]: 41.50
b* after treatment [3, 20]: −18.68
L* after treatment [3, 21]: 37.91
b* after treatment [3, 21]: −19.85
L* after treatment [3, 22]: 40.74
b* after treatment [3, 22]: −19.12
L* after treatment [3, 23]: 40.82
b* after treatment [3, 23]: −18.82
L* after treatment [3, 24]: 33.97
b* after treatment [3, 24]: −17.95
L* after treatment [3, 25]: 34.38
b* after treatment [3, 25]: −18.22
L* after treatment [3, 26]: 40.33
b* after treatment [3, 26]: −18.30
L* after treatment [3, 27]: 37.66
b* after treatment [3, 27]: −18.58
L* after treatment [3, 28]: 27.75
b* after treatment [3, 28]: −18.76
L* after treatment [3, 29]: 39.35
b* after treatment [3, 29]: −17.39
L* after treatment [3, 30]: 41.11
b* after treatment [3, 30]: −16.79
L* after treatment [3, 31]: 38.07
b* after treatment [3, 31]: −17.33
L* after treatment [3, 32]: 37.12
b* after treatment [3, 32]: −18.03
L* after treatment [3, 33]: 36.65
b* after treatment [3, 33]: −17.95

COc1cccc(OC)c1O [DMP, 2,6-dimethoxy phenol]
kcat [2, 5]: 67.17 s⁻¹
kcat [1, 5]: 69.33 s⁻¹

B1: Thielavia arenaria ALKO4197 laccase TaLcc1, recombinant (rTaLcc1, expressed in Trichoderma reesei), SEQ ID NO: 12 (Canariomyces arenarius) (protein)
chain: T2 sequence (F6N9E7 with tags, fused parts or gaps)
notes: predicted mature residues 22-604; no tag stated
Km [4]: 4.3 µM
kcat [4]: 32.3 s⁻¹
kcat/Km [4]: 7.52e+06 M⁻¹ s⁻¹
